Measured values: patent US7863302B2, “Compounds and methods for modulating FX-receptors” (Eli Lilly and Company, priority 2006, dated 2011)

Legend:
[1] = molecular target: T1, human FXR ligand-binding domain (Homo sapiens, UniProt Q96RI1); assay: FXR-SRC-1 Cofactor Recruitment Assay (Alpha Screen); assay type: biochemical; conditions: SRC-1 FXR interaction, 4 hours at room temperature
T1 construct: 6-HIS
T1 sequence (Q96RI1 242-472 isoform Q96RI1-2 limits assumed): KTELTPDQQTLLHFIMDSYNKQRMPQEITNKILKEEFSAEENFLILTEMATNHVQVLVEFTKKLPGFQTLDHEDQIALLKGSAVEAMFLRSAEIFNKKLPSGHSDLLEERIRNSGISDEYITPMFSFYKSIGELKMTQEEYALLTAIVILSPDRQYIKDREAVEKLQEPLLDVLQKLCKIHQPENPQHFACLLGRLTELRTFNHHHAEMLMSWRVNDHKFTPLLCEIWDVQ
T1 sequence (Q15788 600-774 partner limits assumed): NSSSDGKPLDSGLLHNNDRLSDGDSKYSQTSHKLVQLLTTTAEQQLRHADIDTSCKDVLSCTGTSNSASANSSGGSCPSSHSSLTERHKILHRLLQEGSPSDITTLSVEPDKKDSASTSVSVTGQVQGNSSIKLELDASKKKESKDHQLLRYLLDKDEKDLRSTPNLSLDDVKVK
Description: FXR-SRC-1 Cofactor Recruitment Assay
Compounds are tested in concentration-response curves by an FXR-SRC-1 Cofactor Recruitment assay using the Alpha (Amplified Luminescent Proximity Homogeneous Assay) Screen technology according to the manufacturer instructions (Perkin Elmer). Briefly, purified 6-HIS-tagged human FXR ligand-binding domain (amino acids 242-472), purified GST-tagged human SRC-1 nuclear receptor-interacting domain (amino acids 220-394), Nickel Chelate donor beads (Perkin Elmer) and Anti-GST antibody acceptor beads (Perkin Elmer) are mixed together and 12 μL per well is aliquoted into 384 well plates. Add compounds in 3 μL per well for a total assay volume of 15 μL and incubate at room temperature in the dark for 4 hours. After incubation, compounds that bind FXR and induce the interaction between the FXR and SRC-1 would bring the two bead types into proximity generating luminescence that is quantified using a Packard Fusion instrument. Calculate EC50 values for each test compound. Compounds of the invention are found to be effective in the SRC-1 FXR interaction assay with EC50 of about 365-3000 nM.

[2] = test system: LDLR−/− mice; assay: LDLR−/− Serum Lipid Modulation; assay type: in vivo; conditions: 10 mg/kg once daily by oral gavage for seven days, male LDLR−/− mice on western diet
Description: LDLR−/− Serum Lipid Modulation
Acquire LDLR−/− mice from Jackson Laboratories (Stock number 002207, Bar Harbor, Me., USA). Acclimate animals for one week prior to study initiation. House mice individually in polycarbonate cages with filter tops, and maintain mice on a 12:12 hour light-dark cycle (lights on at 6:00 AM) at 21° C. Provide deionized water ad libitum and maintain for two weeks on ‘western diet’ TD 98137 Diet (42% fat, 0.15% cholesterol, Harlan Teklad) ad libitum. Optimize groups of five ten-week-old male LDLR−/− mice based on serum triglyceride and cholesterol levels. Dose groups once daily by oral gavage with various doses of the test compound for seven days. At the end of the seven-day dosing period, collect blood by tail clip for clinical chemistry assessment. Measure serum triglycerides, glucose, and total cholesterol using standard clinical chemistry instrumentation and reagents (Roche Diagnostic, Indianapolis, Ind., USA). Asphyxiate mice in a CO2 chamber. Perform cardiac puncture to collect blood samples for serum FPLC analysis. Assay pooled serum samples for lipoprotein cholesterol fraction values (VLDL, LDL, HDL) by separation on a size exclusion column (Superose® 6HR, Pharmacia Biotech AB, Uppsala, Sweden) with in-line determination of cholesterol.

Cc1cc(OCc2c(-c3ccccc3OC(F)(F)F)noc2C2CC2)ccc1-c1ccc2c(C(=O)O)cn(C)c2c1 [Example 7, 6-{4-[5-Cyclopropyl-3-(2-trifluoromethoxy-phenyl)-isoxazol-4-ylmethoxy]-2-methyl-phenyl}-1-methyl-1H-indole-3-carboxylic acid]
EC50 [1]: 1300 nM
lowers total cholesterol [2]: 63%
lowers triglycerides [2]: 61%
